Experimental data reported in patent US12060588B2, “Methods of editing DNA methylation” (Whitehead Institute for Biomedical Research, priority 2016, dated 2024).

Key:
[1] = tested on: BDNF promoter IV / BDNF expression; assay: BDNF expression in mouse cortical neurons (RT-qPCR); format: cell-based
Method: (§1) FIGS. 3A-3E depict targeted demethylation of BDNF promoter IV by dCas9-Tet1 to activate BDNF in neurons. FIG. 3A provides a schematic representation of targeting BDNF promoter IV by dCas9-Tet1 (dC-T) with specific gRNAs to erase methylation and activate BDNF expression. […] Bars are mean t SD of three biological replicates. FIG. 3C provides representative confocal images for BDNF induction in FIG. 3B. Top panel: BDNF expression was induced by 50 mM KCl treatment for 6 hrs. […] Stained in red for MAP2 (top two panels) or Cherry (bottom two panels), green for BDNF, blue for DAPI and grey for dCas9. Scale bar: 50 um. FIG. 3D depicts bisulfite sequencing of neurons in FIG. 3C. […] Shown is the mean percentage±SD of two biological replicates.
FIGS. 11A-11L depict targeted demethylation of BDNF promoter IV by dCas9-Tet1 in neurons. […] PAM for each gRNA is highlighted by a red box. […] Note that cultured neurons were treated with AraC on DIV2 to halt cell division in glial cells and neural progenitors. […] FIG. 11C provides EDU labeling analysis for the mouse primary neurons over the course of KCl treatment for 24 hrs. Note that extremely few EDU positive cells were observed. Stained in red for EDU, green for MAP2 and DAPI for nuclei. Scale bar: 500 um. FIG. 11D Upper panel: provides quantification of neuronal density over the course of KCl treatment. The post-mitotic neuron density remains steadily around 4.5×10^4/cm2 over time. Bars represent mean±SD of three experimental replicates. Lower panel: provides quantification of the EDU positive cells over the course of KCl treatment. Less than 2% of the cells are EDU-positive over 24 hrs. Bars represent mean±SD of three experimental replicates. FIG. 11E provides confocal micrographs of BDNF induction by ectopic expression of dCas9-Tet1 and a set of 4 gRNAs targeting BDNF promoter IV. Stained in green for BDNF, magenta for MAP2, red for Cherry and blue for DAPI. Note that the lentiviral infection efficiency is close to 100% in these neurons. Scale bar: 50 um. […] Bars represent mean±SD of three experimental replicates. […] FIG. 11J depicts DIV3 mouse cortical neurons were treated with ABT (50 uM) for 6 hours and then treated with KCl (50 mM) for 6-hour before harvest for RT-qPCR analysis. Bars represent mean±SD of three experimental replicates. FIG. 11K depicts DIV3 mouse cortical neurons were treated with 2-Hydroxyglutarate (10 mM) for 2 hours and then treated with KCl (50 mM) for 6-hour before harvest for RT-qPCR analysis. Bars represent mean±SD of three experimental replicates. FIG. 11L depicts DIV3 mouse cortical neurons derived from wild-type or Tet1 knockout E17.5 embryos were subject to time course KCl treatment experiments (6, 9 and 12 h). Bars represent mean±SD of three experimental replicates.
DNA replication-independent active demethylation has been proposed to operate in post-mitotic neurons (Guo et al., 2011; Martinowich et al., 2003). To test whether active demethylation can be induced in post-mitotic neurons, we applied the dCas9-Tet1 system to study the regulation of the BDNF gene. BDNF expression can be induced by neuronal activity accompanied by demethylation of its promoter IV (Chen et al., 2003; Martinowich et al., 2003). We designed 4 gRNAs targeting 11 CpGs in BDNF promoter IV (FIG. 11A) to determine whether dCas9-Tet1 can activate BDNF by inducing demethylation of this promoter (FIG. 3A). Mouse cortical neurons were isolated from E17.5 embryos and cultured for two days in vitro (DIV2) following a well-established experimental procedure for producing primary neuronal culture (Ebert et al., 2013). […] Neurons at day 3 in culture (DIV3) were infected with lentiviral vectors expressing dCas9-Tet1 with or without the 4 gRNAs at almost 100% transduction efficiency (FIG. 11E). At 48-hour post infection some of the cultures were treated with KCl to induce neuronal activity. […] We performed bisulfite sequencing to examine the methylation state of BDNF promoter IV. […]

[2] = tested on: C3H10T1/2 mouse embryonic fibroblast cells; assay: Fibroblast-to-myoblast conversion assay; format: cell-based; conditions: for fraction of mock C3H10T1/2 cells expressing MyoD: after 5-Aza treatment (1 uM, 24-hour)
Excerpt: FIGS. 4A-4H depict targeted demethylation of the MyoD distal enhancer by dCas9-Tet1 to facilitate conversion of fibroblasts to myoblasts. FIG. 4A provides a schematic representation of targeting the MyoD distal enhancer (DE) region in DMR-5 by dCas9-Tet1 (dC-T) with specific gRNAs. […] Cherry positive cells were FACS sorted for RT-qPCR analysis. Bars represent mean±SD of three experimental replicates. FIG. 4C bisulfite sequencing of cells in FIG. 4B. […] Shown is the mean percentage±SD of two biological replicates. […] C3H10T1/2 cells were plated as 1×10^4 cells per well in 6-well plate, and then infected with lentiviruses expressing dC-T and gRNAs targeting DMR-5, or a catalytic dead form of Tet1 (dC-dT) with target gRNAs. 24-hour post infection, cells were treated with vehicle control (HEPES buffer) or 5-Azacytidine (1 uM) for 24-hour, and then harvested after 14 days for immunofluorescence staining. Stained in green for MyoD, magenta for MHC and blue for DAPI. Scale bar: 200 um. FIG. 4F provides quantification of MyoD positive cell ratio 14-day post infection with lentiviruses expressing dC-T alone, dC-T with gRNAs targeting DMR-5, and dC-dT with the target gRNAs. […] FIG. 4H provides quantification of myotube density in MHC positive clusters with more than 2 or 5 nuclei at 14-days after infection. […] Data are quantified from 3-5 representative images for F-H. Bars represent mean±SD.
FIGS. 12A-12J depict targeted demethylation of the MyoD DMR-5 by dCas9-Tet1 and conversion of fibroblasts to myoblasts. […] PAM for each sgRNA is highlighted by a red box. FIG. 12B provides experimental scheme of the fibroblast-to-myoblast conversion assay. Briefly, C3H10T1/2 mouse embryonic fibroblast cells were plated as 1×10^4 cells per well in 6-well plate, and then infected with lentiviruses expressing dCas9-Tet1 and target gRNAs. 24-hour post infection, cells were optionally treated with 5-Azacytidine (1 uM) for 24-hour (labeled in red), and harvested for immunofluorescence staining at different time points (day-14, -16 and -25, labeled in dark blue) with medium change every other day. Scale bar: 100 um. […] Stained in green for MHC, red for MyoD and blue for DAPI. Scale bar: 200 um. FIG. 12D depicts a fraction of mock C3H10T1/2 cells expressing MyoD at different times after 5-Aza treatment. The fraction of cells expressing MyoD increases from around 6% at day 14 to around 13% at day 16 and reached around 20% at day 25. Bars represent mean±SD. FIG. 12E provides number of nuclei in MHC+ cell clusters (grouped as 1-2 and >2 nuclei per MHC+ cluster). […] Bars represent mean±SD. Data was quantified from 3-5 representative images for each group in FIG. 12D and FIG. 12E. […] Bars represent mean±SD of three experimental replicates. FIG. 12G provides representative images for C3H10T1/2 cells 16 days after infection with lentiviruses expressing dC-T and gRNAs targeting DMR-5 (MyoD distal enhancer) in a fibroblast-to-myoblast conversion assay as described in FIG. 12B. […] Stained in magenta for MHC, green for MyoD and blue for DAPI. Scale bar: 200 um. FIG. 12H depicts a fraction of MyoD positive cells 16 days after infection with lentiviruses expressing dC-T alone or with gRNAs targeting DMR-5. FIG. 12I show a number of nuclei in MHC+ cell clusters (grouped as 2-5, 6-10, 11-20 and >20 nuclei per MHC+ cluster) 16 days after infection. […] Data are quantified from 3-5 representative images for FIGS. 12H-12J. Bars represent mean±SD.
We then investigated whether targeted demethylation of DMR-5 would synergize with 5-Aza treatment to induce myotube formation (FIG. 12B). To follow the process of myotube formation after 5-Aza treatment, a time-course experiment was performed. Multi-nucleated myotube (MHC-positive) with heterogeneous sizes began to form 14 days post treatment, and both MyoD-positive cell ratio and myotube density and size then increased up to day-25 (FIGS. 12C-12E). […]

BDNF promoter IV [3] = assay: Bisulfite sequencing of BDNF promoter IV in mouse cortical neurons; format: cell-based; conditions: KCl 50 mM, 6 hours
Method: as §1
DNA replication-independent active demethylation has been proposed to operate in post-mitotic neurons (Guo et al., 2011; Martinowich et al., 2003). To test whether active demethylation can be induced in post-mitotic neurons, we applied the dCas9-Tet1 system to study the regulation of the BDNF gene. BDNF expression can be induced by neuronal activity accompanied by demethylation of its promoter IV (Chen et al., 2003; Martinowich et al., 2003). We designed 4 gRNAs targeting 11 CpGs in BDNF promoter IV (FIG. 11A) to determine whether dCas9-Tet1 can activate BDNF by inducing demethylation of this promoter (FIG. 3A). […]

BDNF promoter IV [4] = assay: Tet-assisted bisulfite sequencing (TAB-seq) of 5-hmC in BDNF promoter IV; format: cell-based, mouse; conditions: KCl treatment for 6 hours
Method: FIGS. 11A-11L depict targeted demethylation of BDNF promoter IV by dCas9-Tet1 in neurons. […] PAM for each gRNA is highlighted by a red box. […] Note that cultured neurons were treated with AraC on DIV2 to halt cell division in glial cells and neural progenitors. […] FIG. 11C provides EDU labeling analysis for the mouse primary neurons over the course of KCl treatment for 24 hrs. Note that extremely few EDU positive cells were observed. Stained in red for EDU, green for MAP2 and DAPI for nuclei. Scale bar: 500 um. FIG. 11D Upper panel: provides quantification of neuronal density over the course of KCl treatment. The post-mitotic neuron density remains steadily around 4.5×10^4/cm2 over time. Bars represent mean±SD of three experimental replicates. Lower panel: provides quantification of the EDU positive cells over the course of KCl treatment. Less than 2% of the cells are EDU-positive over 24 hrs. Bars represent mean±SD of three experimental replicates. FIG. 11E provides confocal micrographs of BDNF induction by ectopic expression of dCas9-Tet1 and a set of 4 gRNAs targeting BDNF promoter IV. Stained in green for BDNF, magenta for MAP2, red for Cherry and blue for DAPI. […]
Because post-mitotic neurons were used for these experiments, loss of methylation was likely due to active demethylation. […] Similarly, 5-hmC was also detected after KCl treatment (FIG. 11I). […]

## O=C(O)CCC(O)C(=O)O (stereo not drawn) [2-hydroxygluterate, 2-Hydroxyglutarate, reference compound]
[1]; 10 mM for 2 hours, then KCl 50 mM for 6-hour
  effect on induction of BDNF expression by KCl treatment: completely abolished the induction of BDNF expression by KCl treatment

## Nc1ncn([C@@H]2O[C@H](CO)[C@@H](O)[C@H]2O)c(=O)n1 [5-Aza, 5-Azacytidine]
[2]; 5-Aza (1 uM, 24-hour), 14 days after infection
  MHC+ myotube formation: induces MHC+ myotube formation
[2]; day 14
  fraction of mock C3H10T1/2 cells expressing MyoD: around 6%
[2]; day 16
  fraction of mock C3H10T1/2 cells expressing MyoD: around 13%
[2]; day 25
  fraction of mock C3H10T1/2 cells expressing MyoD: around 20%

## C[C@]1(c2nc3c(C(N)=O)cccc3[nH]2)CCCN1 [ABT-888, reference compound]
[1]; 50 uM for 6 hours, then KCl 50 mM for 6-hour
  effect on activation of BDNF by KCl treatment: reduced the activation of BDNF by KCl treatment

## [Cl-].[K+] [KCl, reference compound]
[1]; KCl 50 mM treatment of DIV3 neurons
  BDNF expression: induced BDNF expression
BDNF promoter IV [3]
  methylation of BDNF promoter IV CpGs (positions relative to transcription start site): induced demethylation of CpGs at positions of −148, −66 and 19
BDNF promoter IV [4]
  5-hmC level in BDNF promoter IV: detected
